{"source": "ChEMBL document CHEMBL5291721", "about": "“A preclinical secondary pharmacology resource illuminates target-adverse drug reaction associations of marketed drugs” (Nat Commun, 2023); note: assay procedure not described here", "key": {"[1]": {"molecular_target": "5-hydroxytryptamine receptor 2A (Homo sapiens, UniProt P28223)", "sequence (P28223 whole entry)": "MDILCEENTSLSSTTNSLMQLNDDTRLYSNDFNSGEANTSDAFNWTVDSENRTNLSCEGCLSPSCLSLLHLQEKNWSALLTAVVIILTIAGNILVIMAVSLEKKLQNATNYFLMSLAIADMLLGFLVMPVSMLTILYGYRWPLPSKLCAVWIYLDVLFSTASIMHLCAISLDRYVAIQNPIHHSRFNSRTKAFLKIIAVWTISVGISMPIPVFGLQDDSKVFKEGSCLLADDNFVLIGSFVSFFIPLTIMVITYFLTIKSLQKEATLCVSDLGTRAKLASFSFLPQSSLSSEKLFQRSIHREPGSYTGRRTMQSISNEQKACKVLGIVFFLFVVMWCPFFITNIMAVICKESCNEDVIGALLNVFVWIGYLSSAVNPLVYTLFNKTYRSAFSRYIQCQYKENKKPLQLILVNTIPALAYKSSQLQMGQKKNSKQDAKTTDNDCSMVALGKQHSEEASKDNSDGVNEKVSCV"}, "Adenosine receptor A3": {"molecular_target": "T1, Adenosine receptor A3 (Homo sapiens, UniProt P0DMS8)", "T1 sequence (P0DMS8 whole entry)": "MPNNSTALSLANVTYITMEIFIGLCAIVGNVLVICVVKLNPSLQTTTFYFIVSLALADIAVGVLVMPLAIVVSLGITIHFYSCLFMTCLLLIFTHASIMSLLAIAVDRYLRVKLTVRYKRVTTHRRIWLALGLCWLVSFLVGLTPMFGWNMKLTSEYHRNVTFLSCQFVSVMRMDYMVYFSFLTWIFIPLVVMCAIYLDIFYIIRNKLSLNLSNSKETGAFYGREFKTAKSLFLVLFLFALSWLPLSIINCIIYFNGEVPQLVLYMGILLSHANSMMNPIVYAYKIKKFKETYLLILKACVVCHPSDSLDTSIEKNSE"}, "[2]": {"molecular_target": "T2, Prostaglandin G/H synthase 1 (Homo sapiens, UniProt P23219)", "T2 sequence (P23219 whole entry)": "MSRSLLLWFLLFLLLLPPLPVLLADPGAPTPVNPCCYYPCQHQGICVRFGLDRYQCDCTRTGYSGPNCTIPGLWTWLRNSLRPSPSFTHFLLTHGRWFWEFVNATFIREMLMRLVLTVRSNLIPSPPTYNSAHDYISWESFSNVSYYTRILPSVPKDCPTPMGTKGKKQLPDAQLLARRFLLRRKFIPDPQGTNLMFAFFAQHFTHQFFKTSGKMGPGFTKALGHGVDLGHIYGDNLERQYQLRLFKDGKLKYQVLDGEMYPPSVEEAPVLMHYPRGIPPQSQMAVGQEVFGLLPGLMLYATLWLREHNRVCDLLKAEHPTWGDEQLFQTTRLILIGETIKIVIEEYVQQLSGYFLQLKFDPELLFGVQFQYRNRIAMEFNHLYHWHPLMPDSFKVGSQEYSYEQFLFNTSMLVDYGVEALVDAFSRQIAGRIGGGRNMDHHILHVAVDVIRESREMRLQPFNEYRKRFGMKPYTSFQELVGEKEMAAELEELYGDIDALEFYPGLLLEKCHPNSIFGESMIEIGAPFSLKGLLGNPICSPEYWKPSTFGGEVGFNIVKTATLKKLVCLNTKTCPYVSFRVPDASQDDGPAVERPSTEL", "type": "functional"}, "D(1A) dopamine receptor": {"molecular_target": "D(1A) dopamine receptor (Homo sapiens, UniProt P21728)", "sequence (P21728 whole entry)": "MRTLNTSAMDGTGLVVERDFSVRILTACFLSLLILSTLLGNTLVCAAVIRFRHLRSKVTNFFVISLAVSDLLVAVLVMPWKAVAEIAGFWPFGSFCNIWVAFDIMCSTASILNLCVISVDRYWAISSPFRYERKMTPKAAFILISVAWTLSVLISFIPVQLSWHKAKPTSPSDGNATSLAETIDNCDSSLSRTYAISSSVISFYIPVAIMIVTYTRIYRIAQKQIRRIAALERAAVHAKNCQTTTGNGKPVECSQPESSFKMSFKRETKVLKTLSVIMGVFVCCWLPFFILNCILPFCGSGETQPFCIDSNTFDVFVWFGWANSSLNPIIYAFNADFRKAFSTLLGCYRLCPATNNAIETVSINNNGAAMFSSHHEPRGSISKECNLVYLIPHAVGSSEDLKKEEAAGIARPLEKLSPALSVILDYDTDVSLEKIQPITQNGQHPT"}, "[3]": {"molecular_target": "T2, Prostaglandin G/H synthase 1", "type": "functional", "remark": "listed apart in the source"}, "[4]": {"molecular_target": "Gamma-aminobutyric acid receptor subunit alpha-1/alpha-2/beta-2/gamma-2 (Homo sapiens, UniProt P14867+P18507+P47869+P47870)", "type": "protein-complex assay"}, "[5]": {"molecular_target": "T3, Alpha-2A adrenergic receptor (Homo sapiens, UniProt P08913)", "T3 sequence (P08913 whole entry)": "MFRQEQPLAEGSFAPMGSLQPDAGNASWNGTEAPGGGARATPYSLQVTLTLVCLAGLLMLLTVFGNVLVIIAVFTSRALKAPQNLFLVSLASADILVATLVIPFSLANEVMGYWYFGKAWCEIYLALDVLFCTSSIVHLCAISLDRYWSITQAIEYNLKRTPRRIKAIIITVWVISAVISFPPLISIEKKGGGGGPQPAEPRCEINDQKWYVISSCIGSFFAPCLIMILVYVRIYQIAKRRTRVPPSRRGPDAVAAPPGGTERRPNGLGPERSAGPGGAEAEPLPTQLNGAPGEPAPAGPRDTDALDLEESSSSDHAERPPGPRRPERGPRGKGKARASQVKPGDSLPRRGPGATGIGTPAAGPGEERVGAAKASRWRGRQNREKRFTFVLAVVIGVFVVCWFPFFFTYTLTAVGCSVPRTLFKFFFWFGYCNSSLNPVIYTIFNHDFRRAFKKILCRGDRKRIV"}, "Androgen receptor": {"molecular_target": "T4, Androgen receptor (Homo sapiens, UniProt P10275)", "T4 sequence (P10275 whole entry)": "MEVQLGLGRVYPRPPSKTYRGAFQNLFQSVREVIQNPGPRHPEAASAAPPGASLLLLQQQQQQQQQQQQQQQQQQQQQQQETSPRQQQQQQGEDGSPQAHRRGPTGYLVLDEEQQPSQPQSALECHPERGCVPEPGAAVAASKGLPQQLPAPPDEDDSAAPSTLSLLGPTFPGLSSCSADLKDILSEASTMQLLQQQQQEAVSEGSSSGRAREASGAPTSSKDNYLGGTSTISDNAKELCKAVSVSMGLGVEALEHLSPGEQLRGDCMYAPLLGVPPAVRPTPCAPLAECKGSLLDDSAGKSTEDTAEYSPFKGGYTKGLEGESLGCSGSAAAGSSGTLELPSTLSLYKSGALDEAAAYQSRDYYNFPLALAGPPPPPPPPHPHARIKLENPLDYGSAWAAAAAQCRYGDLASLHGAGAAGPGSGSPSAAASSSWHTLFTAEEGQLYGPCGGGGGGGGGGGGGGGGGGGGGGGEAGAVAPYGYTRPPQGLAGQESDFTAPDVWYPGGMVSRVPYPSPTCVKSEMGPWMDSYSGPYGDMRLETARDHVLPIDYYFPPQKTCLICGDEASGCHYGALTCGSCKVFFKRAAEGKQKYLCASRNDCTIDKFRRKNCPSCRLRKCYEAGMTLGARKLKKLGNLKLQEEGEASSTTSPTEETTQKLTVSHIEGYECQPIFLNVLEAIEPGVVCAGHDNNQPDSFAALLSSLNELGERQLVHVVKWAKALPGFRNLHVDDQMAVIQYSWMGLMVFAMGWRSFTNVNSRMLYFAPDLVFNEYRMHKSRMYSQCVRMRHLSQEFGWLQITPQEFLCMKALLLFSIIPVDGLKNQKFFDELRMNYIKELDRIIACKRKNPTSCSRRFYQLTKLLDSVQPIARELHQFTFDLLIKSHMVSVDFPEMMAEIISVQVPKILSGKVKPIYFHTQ"}, "[6]": {"molecular_target": "Vascular endothelial growth factor receptor 2 (Homo sapiens, UniProt P35968)", "sequence (P35968 whole entry)": "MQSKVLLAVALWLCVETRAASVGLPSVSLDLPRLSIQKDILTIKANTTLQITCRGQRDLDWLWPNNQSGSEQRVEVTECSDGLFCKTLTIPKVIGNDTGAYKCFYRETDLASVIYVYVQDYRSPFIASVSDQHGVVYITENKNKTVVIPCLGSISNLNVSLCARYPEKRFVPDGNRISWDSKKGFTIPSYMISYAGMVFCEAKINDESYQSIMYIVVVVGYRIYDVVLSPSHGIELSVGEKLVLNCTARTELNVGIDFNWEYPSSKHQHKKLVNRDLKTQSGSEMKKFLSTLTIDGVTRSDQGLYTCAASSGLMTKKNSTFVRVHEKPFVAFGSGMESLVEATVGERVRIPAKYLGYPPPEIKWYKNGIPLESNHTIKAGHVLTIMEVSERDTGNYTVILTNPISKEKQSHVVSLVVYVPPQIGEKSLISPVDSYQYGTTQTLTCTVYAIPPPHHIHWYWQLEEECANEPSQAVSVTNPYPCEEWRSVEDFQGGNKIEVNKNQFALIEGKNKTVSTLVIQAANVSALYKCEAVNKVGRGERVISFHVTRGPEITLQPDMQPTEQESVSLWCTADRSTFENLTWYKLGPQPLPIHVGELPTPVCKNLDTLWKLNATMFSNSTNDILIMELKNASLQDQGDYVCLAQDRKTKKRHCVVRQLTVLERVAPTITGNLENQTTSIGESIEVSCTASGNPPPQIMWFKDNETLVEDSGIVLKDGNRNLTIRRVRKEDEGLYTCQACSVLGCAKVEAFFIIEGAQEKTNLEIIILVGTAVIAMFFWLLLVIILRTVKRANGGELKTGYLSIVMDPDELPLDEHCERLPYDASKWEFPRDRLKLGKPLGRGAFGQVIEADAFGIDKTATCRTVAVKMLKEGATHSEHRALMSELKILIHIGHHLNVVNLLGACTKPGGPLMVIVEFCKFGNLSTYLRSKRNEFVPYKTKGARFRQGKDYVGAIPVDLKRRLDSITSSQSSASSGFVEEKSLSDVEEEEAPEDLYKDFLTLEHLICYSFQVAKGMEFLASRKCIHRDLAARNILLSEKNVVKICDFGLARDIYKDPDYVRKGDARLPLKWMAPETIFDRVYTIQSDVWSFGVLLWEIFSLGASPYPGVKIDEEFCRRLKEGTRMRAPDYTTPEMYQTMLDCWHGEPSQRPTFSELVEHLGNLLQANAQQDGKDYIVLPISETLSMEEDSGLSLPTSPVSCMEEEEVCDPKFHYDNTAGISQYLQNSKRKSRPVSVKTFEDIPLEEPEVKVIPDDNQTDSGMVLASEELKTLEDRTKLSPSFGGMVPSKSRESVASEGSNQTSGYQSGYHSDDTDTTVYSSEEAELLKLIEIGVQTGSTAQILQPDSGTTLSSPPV", "type": "functional"}, "[7]": {"molecular_target": "Gamma-aminobutyric acid receptor subunit alpha-1/alpha-2/beta-2/gamma-2 (Homo sapiens, UniProt P14867+P47870+P18507+P47869)", "type": "protein-complex assay"}, "Thromboxane A2 receptor [8]": {"molecular_target": "T5, Thromboxane A2 receptor (Homo sapiens, UniProt P21731)", "T5 sequence (P21731 whole entry)": "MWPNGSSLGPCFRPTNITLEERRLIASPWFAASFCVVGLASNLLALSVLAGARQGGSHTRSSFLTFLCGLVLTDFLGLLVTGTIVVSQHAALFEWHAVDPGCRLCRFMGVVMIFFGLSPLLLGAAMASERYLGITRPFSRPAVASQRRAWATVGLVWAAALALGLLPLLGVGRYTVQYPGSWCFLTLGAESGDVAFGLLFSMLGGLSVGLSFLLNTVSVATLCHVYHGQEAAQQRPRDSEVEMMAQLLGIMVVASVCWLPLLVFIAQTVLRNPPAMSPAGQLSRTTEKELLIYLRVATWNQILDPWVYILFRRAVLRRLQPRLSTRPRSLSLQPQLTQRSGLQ", "type": "functional"}, "Thromboxane A2 receptor [9]": {"molecular_target": "T5, Thromboxane A2 receptor", "type": "functional, cell-based"}, "[10]": {"molecular_target": "5-hydroxytryptamine receptor 6 (Homo sapiens, UniProt P50406)", "sequence (P50406 whole entry)": "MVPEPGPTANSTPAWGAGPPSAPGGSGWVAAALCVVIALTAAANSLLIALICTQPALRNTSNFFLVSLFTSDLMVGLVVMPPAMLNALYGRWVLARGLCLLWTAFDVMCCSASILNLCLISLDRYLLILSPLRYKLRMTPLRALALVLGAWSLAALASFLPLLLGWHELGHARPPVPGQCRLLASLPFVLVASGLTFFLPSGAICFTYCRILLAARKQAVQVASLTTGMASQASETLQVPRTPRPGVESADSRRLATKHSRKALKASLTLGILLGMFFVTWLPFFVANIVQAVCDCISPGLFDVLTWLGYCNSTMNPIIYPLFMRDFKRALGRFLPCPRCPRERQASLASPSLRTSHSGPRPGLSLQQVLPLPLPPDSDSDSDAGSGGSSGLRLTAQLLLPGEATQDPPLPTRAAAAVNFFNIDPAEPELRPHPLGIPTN"}}}
{"compound": "Cc1nnc2n1-c1ccc(Cl)cc1C(c1ccccc1Cl)=NC2", "note": "[TRIAZOLAM]", "values": [{"measurement": "AC50", "setting": "[1]", "result": 3.2, "unit": "µM"}]}
{"compound": "CO[C@]12C[C@@H](COC(=O)c3cncc(Br)c3)CN(C)[C@@H]1Cc1cn(C)c3cccc2c13", "note": "[NICERGOLINE]", "values": [{"measurement": "AC50", "setting": "Adenosine receptor A3", "result": 22.4, "unit": "µM"}, {"measurement": "AC50", "setting": "[2]", "result": "> 30", "unit": "µM"}, {"measurement": "AC50", "setting": "D(1A) dopamine receptor", "result": 0.393, "unit": "µM"}, {"measurement": "AC50", "setting": "[3]", "result": "> 30", "unit": "µM"}, {"measurement": "AC50", "setting": "[4]", "result": "> 10", "unit": "µM"}, {"measurement": "AC50", "setting": "[5]", "result": 0.0426, "unit": "µM"}, {"measurement": "AC50", "setting": "Androgen receptor", "result": "> 30", "unit": "µM"}]}
{"compound": "CC(CC1c2ccccc2CCc2ccccc21)CN(C)C", "note": "(stereo not drawn) [BUTRIPTYLINE]", "values": [{"measurement": "AC50", "setting": "[6]", "result": "> 30", "unit": "µM"}]}
{"compound": "THIMEROSAL", "values": [{"measurement": "AC50", "setting": "[7]", "result": "> 30", "unit": "µM"}, {"measurement": "AC50", "setting": "Thromboxane A2 receptor [8]", "result": "> 30", "unit": "µM"}, {"measurement": "AC50", "setting": "Thromboxane A2 receptor [9]", "result": "> 10", "unit": "µM"}]}
{"compound": "Cc1c(OCC(F)(F)F)ccnc1C[S+]([O-])c1nc2ccccc2[nH]1", "note": "(stereo not drawn) [LANSOPRAZOLE]", "values": [{"measurement": "AC50", "setting": "[10]", "result": "> 10", "unit": "µM"}]}
